Test results: patent publication US20170296491A1, “PHARMACEUTICAL COMPOSITIONS COMPRISING LEVODOPA AMIDE AND USES THEREOF” (priority 2015, published 2017)
Structures can show the parent of a compound that is named as a salt.

Assays:
[1] = Effect of preparation method and pH on stability of LDA-HCl/CD formulations; format: physicochemical; details: 5 days at room temperature (Table 7)
Protocol: LDA-HCl/CD formulations were prepared by the following methods, and were then tested for stability. Method 1. Carbidopa (CD, powder) [Teva Pharmaceuticals Ltd., Israel] was added to LDA-HCl solution. […] Precipitation occurred at room temperature. Method 2. Liquid CD formulations were prepared by weighting CD [Teva Pharmaceuticals Ltd., Israel] in a suitable container with different L-arginine [Merck] weights to obtain a final concentration of 0.8% CD (wet form, 0.75% dry form) in different molar ratios to arginine (Table 6). CD formulations were prepared as described in the International Publication No. WO 2010/134074. LDA-HCl (powder) was added to CD solutions to attain the final desired concentration of LDA-HCl/CD formulations. Method 3. CD solutions (40 mg/ml, prepared as described in the International Publication No. WO 2010/134074) were mixed with LDA-HCl solutions to attain the final desired concentration of LDA/CD formulations. The LDA-HCl formulations were prepared by dissolving 200, 160 or 120 mg/ml of LDA-HCl in 40 mM citric buffer. The chemical stability of 7 LDA-HCl/CD formulations was evaluated by HPLC analysis at t0 and after 5 days at room temperature. The recovery after 5 days at room temperature was calculated compared to t0 (Table 7).

[2] = Plasma pharmacokinetics of LDA and LD after oral LDA-HCl with and without CD in rats; format: in vivo; details: oral LDA-HCl 25 mg/kg with or without oral 10 mg/kg CD
Protocol: The purpose of this experiment was to determine the plasma pharmacokinetics of LDA and LD following oral administration of LD or LDA-HCl with and without CD in Wistar rats.
Wistar rats underwent fasting overnight prior to the dosing and received food only 2 hour post-dosing. The method used to dose orally was via oesophagotubage. Solutions were prepared as described above.

[3] = Stability of LDA-HCl 50 mg/ml in citrate or phosphate buffer, 4 days at 37° C., HPLC; format: physicochemical
Protocol: Liquid formulations were prepared by dissolving LDA-HCl, 50 mg/ml in buffer citrate or buffer phosphate at different pH levels (Table 2). The formulations were incubated 4 days at 37° C., their stability was evaluated by HPLC analysis at the end of the fourth day, and the recovery after 4 days at 37° C. was calculated compared to T=0.

[4] = Physical stability (visual) of LDA-HCl 50 mg/ml in water or buffers at room temperature; format: physicochemical; details: for Color at T = 24 h (RT): 50 mg/ml; for time physically stable at room temperature: 5% LDA-HCl and water or a buffer
Protocol: (§1) Liquid formulations were prepared by dissolving LDA-HCl, 50 mg/ml in water or different buffers (40 mM) at various pH levels. The physical stability of LDA was determined visually after 24 hours and 7 days (Table 3), and the chemical stability of LDA was determined by HPLC analysis (Table 4) after 24 h at room temperature (RT) and expressed as % recovery compared to t0.

[5] = Chemical stability (HPLC) of LDA-HCl 50 mg/ml in water or buffers after 24 h at room temperature; format: physicochemical
Protocol: as §1

[6] = Long term stability of LDA-HCl 200 mg/ml in citric buffer with NAC, 2 weeks at 37° C.; format: physicochemical
Protocol: Liquid formulation comprising LDA-HCl in citric buffer was prepared by dissolving 200 mg/ml LDA-HCl in 40 mM citric buffer with 0.05% N-acetylcysteine (NAC) as antioxidant. The formulation was incubated for 2 weeks at 37° C. The stability of LDA after 14 days at 37° C. was evaluated by HPLC analysis, and the recovery calculated compared to t0 (Table 5).

[7] = Physical stability of LDA-HCl solutions with or without added CD-Arg formulation; format: physicochemical; details: preferably pH >4.6
Protocol: HCl solutions at 3 different concentrations containing 0.3% Tween 80 were added to LDA to obtain solutions having a final LDA concentration of 200 mg/ml and a molar ratio of 1:0.89, 1:0.92 and 1:0.95 LDA:HCl. CD-Arg formulation (CD:Arg molar ratio 1:1.25) was prepared in Tween 80 0.3% and was added gradually under stirring to 4 volumes of each of the 3 LDA-HCl solutions. The physical stability of the solutions was evaluated (Table 15). As shown, the addition of CD to LDA-HCl solutions yielded stable solutions if added to LDA-HCl solutions having a pH>3.8, preferably pH >4.6.

[8] = 200 mg/ml LDA-HCl, 40 mM citric buffer, 0.05% NAC

C[C@@](Cc1ccc(O)c(O)c1)(NN)C(=O)O [CD, Carbidopa]
chemical stability in LDA-HCl/CD formulations [1]: pH-dependent
effect of CD on plasma concentration of LD [2]: increases
effect of CD on plasma concentrations of LDA [2]: no effect

NC(=O)C(N)Cc1ccc(O)c(O)c1 (stereo not drawn) [LDA-HCl, 2-amino-3-(3,4-dihydroxyphenyl)propanamide]
stability at 37° C. ([3]; in buffer phosphate at pH>5.7): not stable
time stable at 37° C. ([3]; in citrate buffer): at least 4 days
Color at T = 24 h (RT) ([4]; Acetate pH 3.76): light yellow
Color at T = 24 h (RT) ([4]; Acetate pH 4.72): light yellow
Color at T = 24 h (RT) ([4]; Citrate pH 3.09): light yellow
Color at T = 24 h (RT) ([4]; Citrate pH 3.90): light yellow
Color at T = 24 h (RT) ([4]; Citrate pH 4.85): light yellow
Color at T = 24 h (RT) ([4]; Citrate pH 5.65): medium yellow
Color at T = 24 h (RT) ([4]; Histidine pH 6.20): medium yellow
Color at T = 24 h (RT) ([4]; Phosphate pH 6.03): medium yellow
Color at T = 24 h (RT) ([4]; Phosphate pH 6.32): medium yellow
Color at T = 24 h (RT) ([4]; Tartrate pH 3.84): light yellow
Color at T = 24 h (RT) ([4]; Tris pH 5.39): light yellow
Color at T = 24 h (RT) ([4]; Tris pH 6.14): medium yellow
Color at T = 24 h (RT) ([4]; Tris pH 6.61): medium yellow
Color at T = 24 h (RT) ([4]; Water for injection (WFI) pH 3.56): light yellow
Color at T = 24 h (RT) ([4]; Water for injection (WFI) pH 4.14): light yellow
Color at T = 24 h (RT) ([4]; Water for injection (WFI) pH 4.95): light yellow
Color at T = 24 h (RT) ([4]; Water for injection (WFI) pH 5.93): medium yellow
Color at T = 24 h (RT) ([4]; Water for injection (WFI) pH 6.44): medium yellow
Color at T = 24 h (RT) ([4]; Water for injection (WFI) pH 6.91): strong yellow
time physically stable at room temperature ([4]; all conditions tested): 24 h
time physically stable at room temperature ([4]; only formulations having a pH<5.5): at least 7 days
time chemically stable at room temperature ([5]; 5% LDA-HCl and water or a buffer, pH ranging between 3 to 7): at least 24 h
LDA (mg/ml) at T = 0 ([5]; Acetate pH 3.76): 52.09 mg/mL
LDA (mg/ml) at T = 24 hr (RT) ([5]; Acetate pH 3.76): 52.41 mg/mL
LDA (mg/ml) at T = 0 ([5]; Acetate pH 4.72): 52.66 mg/mL
LDA (mg/ml) at T = 24 hr (RT) ([5]; Acetate pH 4.72): 53.05 mg/mL
LDA (mg/ml) at T = 0 ([5]; Citrate pH 3.09): 51.84 mg/mL
LDA (mg/ml) at T = 24 hr (RT) ([5]; Citrate pH 3.09): 52.09 mg/mL
LDA (mg/ml) at T = 0 ([5]; Citrate pH 3.9): 51.34 mg/mL
LDA (mg/ml) at T = 24 hr (RT) ([5]; Citrate pH 3.9): 51.7 mg/mL
LDA (mg/ml) at T = 0 ([5]; Citrate pH 4.85): 52.05 mg/mL
LDA (mg/ml) at T = 24 hr (RT) ([5]; Citrate pH 4.85): 52.75 mg/mL
LDA (mg/ml) at T = 0 ([5]; Citrate pH 5.65): 51.24 mg/mL
LDA (mg/ml) at T = 24 hr (RT) ([5]; Citrate pH 5.65): 51.03 mg/mL
LDA (mg/ml) at T = 0 ([5]; Histidine pH 6.2): 51.27 mg/mL
LDA (mg/ml) at T = 24 hr (RT) ([5]; Histidine pH 6.2): 51.76 mg/mL
LDA (mg/ml) at T = 0 ([5]; Phosphate pH 6.03): 51.32 mg/mL
LDA (mg/ml) at T = 24 hr (RT) ([5]; Phosphate pH 6.03): 51.36 mg/mL
LDA (mg/ml) at T = 0 ([5]; Phosphate pH 6.32): 52.05 mg/mL
LDA (mg/ml) at T = 24 hr (RT) ([5]; Phosphate pH 6.32): 51.82 mg/mL
LDA (mg/ml) at T = 0 ([5]; Tartrate pH 3.84): 52.46 mg/mL
LDA (mg/ml) at T = 24 hr (RT) ([5]; Tartrate pH 3.84): 52.26 mg/mL
LDA (mg/ml) at T = 0 ([5]; Tris pH 5.39): 51.88 mg/mL
LDA (mg/ml) at T = 24 hr (RT) ([5]; Tris pH 5.39): 52.08 mg/mL
LDA (mg/ml) at T = 0 ([5]; Tris pH 6.14): 51.79 mg/mL
LDA (mg/ml) at T = 24 hr (RT) ([5]; Tris pH 6.14): 51.73 mg/mL
LDA (mg/ml) at T = 0 ([5]; Tris pH 6.61): 51.62 mg/mL
LDA (mg/ml) at T = 24 hr (RT) ([5]; Tris pH 6.61): 51.74 mg/mL
LDA (mg/ml) at T = 0 ([5]; WFI pH 3.56): 51.91 mg/mL
LDA (mg/ml) at T = 24 hr (RT) ([5]; WFI pH 3.56): 51.34 mg/mL
LDA (mg/ml) at T = 0 ([5]; WFI pH 4.14): 51.3 mg/mL
LDA (mg/ml) at T = 24 hr (RT) ([5]; WFI pH 4.14): 51.57 mg/mL
LDA (mg/ml) at T = 0 ([5]; WFI pH 4.95): 51.07 mg/mL
LDA (mg/ml) at T = 24 hr (RT) ([5]; WFI pH 4.95): 50.23 mg/mL
LDA (mg/ml) at T = 0 ([5]; WFI pH 5.93): 51.32 mg/mL
LDA (mg/ml) at T = 24 hr (RT) ([5]; WFI pH 5.93): 50.5 mg/mL
LDA (mg/ml) at T = 0 ([5]; WFI pH 6.44): 51.24 mg/mL
LDA (mg/ml) at T = 24 hr (RT) ([5]; WFI pH 6.44): 50.33 mg/mL
LDA (mg/ml) at T = 0 ([5]; WFI pH 6.91): 51.05 mg/mL
LDA (mg/ml) at T = 24 hr (RT) ([5]; WFI pH 6.91): 49.54 mg/mL
LDA content at T = 0 [6, 8]: 18.69
LDA content at T = 2 w, 37° C. [6, 8]: 19.01
time stable ([6]; high concentrations of LDA-HCl and NAC in citric buffer): at least 14 days
pH of LDA-HCl solution at which addition of CD yielded stable solutions [7]: > 3.8
